Columns and labels:
Rattus norvegicus [1] = test: Inhibition of DPP4 in CD rat plasma at 10 mg/kg, po after 12 hrs; format: functional
Canis familiaris [2] = test: Inhibition of DPP4 in Beagle dog plasma at 3 mg/kg, po after 12 hrs; format: functional; settings: Canis lupus familiaris
Rattus norvegicus [3] = test: Inhibition of DPP4 in CD rat plasma at 10 mg/kg, po after 1 hr; format: functional
Rattus norvegicus [4] = test: Inhibition of DPP4 in CD rat plasma at 10 mg/kg, po after 8 hrs; format: functional
Canis familiaris [5] = test: Inhibition of DPP4 in Beagle dog plasma at 3 mg/kg, po after 1 hr; format: functional; settings: Canis lupus familiaris
Canis familiaris [6] = test: Inhibition of DPP4 in Beagle dog plasma at 3 mg/kg, po after 4 hrs; format: functional; settings: Canis lupus familiaris
Canis familiaris [7] = test: Inhibition of DPP4 in Beagle dog plasma at 3 mg/kg, po after 24 hrs; format: functional; settings: Canis lupus familiaris
Dipeptidyl peptidase 2 = Dipeptidyl peptidase 2 (Rattus norvegicus, UniProt Q9EPB1); test: Inhibition of rat DPP2 expressed in african green monkey COS7 cells after 60 mins by fluorescence plate reader; format: cell-based, COS-7
Aminopeptidase N = Aminopeptidase N (Homo sapiens, UniProt P15144); test: Inhibition of APN
Prolyl endopeptidase = biological target: T1, Prolyl endopeptidase (Rattus norvegicus, UniProt O70196); test: Inhibition of POP in rat brain cortex; format: tissue-based
T1 sequence (O70196 whole entry): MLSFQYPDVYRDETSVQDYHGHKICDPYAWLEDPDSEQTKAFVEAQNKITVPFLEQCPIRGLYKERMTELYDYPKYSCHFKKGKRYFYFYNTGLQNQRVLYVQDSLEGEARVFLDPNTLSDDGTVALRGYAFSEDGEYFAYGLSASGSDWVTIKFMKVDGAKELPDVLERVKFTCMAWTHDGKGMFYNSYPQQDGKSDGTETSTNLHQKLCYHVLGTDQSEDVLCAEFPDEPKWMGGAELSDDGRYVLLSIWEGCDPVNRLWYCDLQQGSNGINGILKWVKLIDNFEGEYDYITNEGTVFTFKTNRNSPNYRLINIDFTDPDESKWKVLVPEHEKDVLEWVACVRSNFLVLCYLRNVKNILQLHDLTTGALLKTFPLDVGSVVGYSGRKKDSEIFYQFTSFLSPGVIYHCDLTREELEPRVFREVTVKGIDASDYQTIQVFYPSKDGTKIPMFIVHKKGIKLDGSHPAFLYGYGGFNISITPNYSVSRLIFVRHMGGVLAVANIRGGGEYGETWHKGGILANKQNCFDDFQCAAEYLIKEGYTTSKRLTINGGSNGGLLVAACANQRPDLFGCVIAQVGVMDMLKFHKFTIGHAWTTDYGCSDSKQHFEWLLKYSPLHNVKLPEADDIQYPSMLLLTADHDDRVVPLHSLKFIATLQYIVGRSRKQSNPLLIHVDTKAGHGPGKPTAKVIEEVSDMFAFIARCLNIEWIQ

[8] = Inhibition of trypsin
[9] = Inhibition of elastase
[10] = Metabolic stability in human liver microsomes assessed as compound remaining after 1 hr; format: ADME, Microsome; settings: read-out: Stability
[11] = Metabolic stability in rat liver microsomes assessed as compound remaining after 1 hr; format: ADME, Microsome; settings: read-out: Stability
[12] = Chemical stability of the compound in buffer solution assessed as compound remaining at pH 1 to 9 after 24 hrs; format: physicochemical; settings: read-out: Stability
CYP3A4 = CYP3A4 (Homo sapiens, UniProt P08684); test: Inhibition of CYP3A4 at 10 uM; format: ADME
CYP1A2 = biological target: T2, CYP1A2 (Homo sapiens, UniProt P05177); test: Inhibition of CYP1A2 at 10 uM; format: ADME
T2 sequence (P05177 whole entry): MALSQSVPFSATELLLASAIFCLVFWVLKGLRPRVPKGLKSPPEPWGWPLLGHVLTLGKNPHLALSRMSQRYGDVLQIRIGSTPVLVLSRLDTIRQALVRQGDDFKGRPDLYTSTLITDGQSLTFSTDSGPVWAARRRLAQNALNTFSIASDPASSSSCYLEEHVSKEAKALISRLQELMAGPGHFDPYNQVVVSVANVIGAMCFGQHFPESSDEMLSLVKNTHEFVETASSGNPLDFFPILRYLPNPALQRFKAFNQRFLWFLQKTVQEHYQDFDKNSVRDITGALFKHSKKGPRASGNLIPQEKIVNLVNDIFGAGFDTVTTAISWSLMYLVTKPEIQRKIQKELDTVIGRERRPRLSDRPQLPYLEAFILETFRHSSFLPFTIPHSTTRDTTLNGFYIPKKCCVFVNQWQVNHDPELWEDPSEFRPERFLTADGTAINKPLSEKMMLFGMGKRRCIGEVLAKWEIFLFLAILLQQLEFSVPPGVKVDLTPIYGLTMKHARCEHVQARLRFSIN

CYP2C9 = CYP2C9 (Homo sapiens, UniProt P11712); test: Inhibition of CYP2C9 at 10 uM; format: ADME
CYP2C19 = CYP2C19 (Homo sapiens, UniProt P33261); test: Inhibition of CYP2C19 at 10 uM; format: ADME
CYP2D6 = CYP2D6 (Homo sapiens, UniProt P10635); test: Inhibition of CYP2D6 at 10 uM; format: ADME
[13] = biological target: Voltage-gated inwardly rectifying potassium channel KCNH2 (Homo sapiens, UniProt Q12809); test: Binding affinity to human ERG
HepG2 = test: Cytotoxicity against human HepG2 cells at 100 uM; format: cell-based; settings: hepg2, 100 µM
[14] = Cytotoxicity against human WI38 cells at 100 uM; format: cell-based; settings: wi-38, 100 µM

CYP2C9, sequence (P11712 whole entry): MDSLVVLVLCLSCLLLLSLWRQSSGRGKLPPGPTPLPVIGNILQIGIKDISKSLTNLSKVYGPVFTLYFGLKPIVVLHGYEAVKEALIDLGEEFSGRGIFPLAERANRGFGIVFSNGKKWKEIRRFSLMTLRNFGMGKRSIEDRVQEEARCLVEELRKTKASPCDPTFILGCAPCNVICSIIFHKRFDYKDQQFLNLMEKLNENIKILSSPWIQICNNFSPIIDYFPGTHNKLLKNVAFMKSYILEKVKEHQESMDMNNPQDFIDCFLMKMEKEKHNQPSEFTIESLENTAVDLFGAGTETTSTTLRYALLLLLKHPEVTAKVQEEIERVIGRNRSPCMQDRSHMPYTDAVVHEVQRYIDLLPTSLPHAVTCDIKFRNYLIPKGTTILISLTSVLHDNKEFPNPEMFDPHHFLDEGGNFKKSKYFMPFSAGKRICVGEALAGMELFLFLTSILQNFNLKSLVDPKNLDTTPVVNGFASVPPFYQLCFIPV
Aminopeptidase N, sequence (P15144 whole entry): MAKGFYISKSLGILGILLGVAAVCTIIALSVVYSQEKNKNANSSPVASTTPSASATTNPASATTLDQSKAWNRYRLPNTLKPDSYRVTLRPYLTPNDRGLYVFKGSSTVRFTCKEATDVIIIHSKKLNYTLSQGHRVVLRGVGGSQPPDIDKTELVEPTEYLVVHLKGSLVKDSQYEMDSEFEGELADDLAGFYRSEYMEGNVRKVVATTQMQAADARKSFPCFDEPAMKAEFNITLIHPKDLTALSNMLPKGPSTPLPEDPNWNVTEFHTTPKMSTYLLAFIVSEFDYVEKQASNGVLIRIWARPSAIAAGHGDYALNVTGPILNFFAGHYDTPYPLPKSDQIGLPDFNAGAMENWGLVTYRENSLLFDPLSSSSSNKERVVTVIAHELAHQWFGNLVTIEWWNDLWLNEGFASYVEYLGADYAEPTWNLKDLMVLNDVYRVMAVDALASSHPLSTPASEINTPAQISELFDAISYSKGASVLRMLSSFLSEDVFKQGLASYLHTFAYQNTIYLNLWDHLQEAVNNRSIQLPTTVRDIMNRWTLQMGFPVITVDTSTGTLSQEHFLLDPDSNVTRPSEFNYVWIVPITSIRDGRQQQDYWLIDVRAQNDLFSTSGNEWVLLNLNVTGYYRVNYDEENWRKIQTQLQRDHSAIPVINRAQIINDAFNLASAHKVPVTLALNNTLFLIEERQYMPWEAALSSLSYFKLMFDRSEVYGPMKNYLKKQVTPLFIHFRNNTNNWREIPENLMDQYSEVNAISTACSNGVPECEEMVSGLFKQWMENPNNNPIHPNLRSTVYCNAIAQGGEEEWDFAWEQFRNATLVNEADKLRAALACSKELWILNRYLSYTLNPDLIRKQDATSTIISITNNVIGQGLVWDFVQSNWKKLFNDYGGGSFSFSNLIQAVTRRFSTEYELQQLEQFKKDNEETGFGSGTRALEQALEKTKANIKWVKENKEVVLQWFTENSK
CYP3A4, sequence (P08684 whole entry): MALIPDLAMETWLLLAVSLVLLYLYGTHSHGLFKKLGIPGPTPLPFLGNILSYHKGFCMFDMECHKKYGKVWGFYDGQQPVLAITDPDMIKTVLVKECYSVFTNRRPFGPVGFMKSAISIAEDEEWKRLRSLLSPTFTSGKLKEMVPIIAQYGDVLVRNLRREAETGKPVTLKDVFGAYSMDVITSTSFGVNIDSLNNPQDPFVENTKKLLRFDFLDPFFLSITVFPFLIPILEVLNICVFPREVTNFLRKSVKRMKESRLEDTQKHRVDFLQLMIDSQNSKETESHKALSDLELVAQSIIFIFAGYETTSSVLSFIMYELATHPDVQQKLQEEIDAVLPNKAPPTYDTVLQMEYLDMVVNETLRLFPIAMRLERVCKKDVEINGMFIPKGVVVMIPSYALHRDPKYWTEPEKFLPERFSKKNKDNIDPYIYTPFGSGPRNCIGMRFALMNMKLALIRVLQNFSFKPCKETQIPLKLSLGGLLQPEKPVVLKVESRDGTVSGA
Dipeptidyl peptidase 2, sequence (Q9EPB1 whole entry): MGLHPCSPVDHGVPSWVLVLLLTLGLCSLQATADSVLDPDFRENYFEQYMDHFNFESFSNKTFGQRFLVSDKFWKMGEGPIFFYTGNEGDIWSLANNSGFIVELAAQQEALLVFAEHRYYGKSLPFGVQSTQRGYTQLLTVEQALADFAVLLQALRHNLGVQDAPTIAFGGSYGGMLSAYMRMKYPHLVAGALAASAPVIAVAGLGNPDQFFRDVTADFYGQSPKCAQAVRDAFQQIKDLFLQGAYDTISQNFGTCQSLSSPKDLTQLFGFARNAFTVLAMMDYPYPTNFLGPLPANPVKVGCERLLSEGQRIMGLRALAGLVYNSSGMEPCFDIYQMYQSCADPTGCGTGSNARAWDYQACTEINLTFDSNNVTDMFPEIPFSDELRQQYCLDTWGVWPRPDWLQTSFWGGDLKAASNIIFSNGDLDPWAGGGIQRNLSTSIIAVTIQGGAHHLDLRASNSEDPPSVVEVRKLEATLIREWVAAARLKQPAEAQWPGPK
Voltage-gated inwardly rectifying potassium channel KCNH2, sequence (Q12809 whole entry): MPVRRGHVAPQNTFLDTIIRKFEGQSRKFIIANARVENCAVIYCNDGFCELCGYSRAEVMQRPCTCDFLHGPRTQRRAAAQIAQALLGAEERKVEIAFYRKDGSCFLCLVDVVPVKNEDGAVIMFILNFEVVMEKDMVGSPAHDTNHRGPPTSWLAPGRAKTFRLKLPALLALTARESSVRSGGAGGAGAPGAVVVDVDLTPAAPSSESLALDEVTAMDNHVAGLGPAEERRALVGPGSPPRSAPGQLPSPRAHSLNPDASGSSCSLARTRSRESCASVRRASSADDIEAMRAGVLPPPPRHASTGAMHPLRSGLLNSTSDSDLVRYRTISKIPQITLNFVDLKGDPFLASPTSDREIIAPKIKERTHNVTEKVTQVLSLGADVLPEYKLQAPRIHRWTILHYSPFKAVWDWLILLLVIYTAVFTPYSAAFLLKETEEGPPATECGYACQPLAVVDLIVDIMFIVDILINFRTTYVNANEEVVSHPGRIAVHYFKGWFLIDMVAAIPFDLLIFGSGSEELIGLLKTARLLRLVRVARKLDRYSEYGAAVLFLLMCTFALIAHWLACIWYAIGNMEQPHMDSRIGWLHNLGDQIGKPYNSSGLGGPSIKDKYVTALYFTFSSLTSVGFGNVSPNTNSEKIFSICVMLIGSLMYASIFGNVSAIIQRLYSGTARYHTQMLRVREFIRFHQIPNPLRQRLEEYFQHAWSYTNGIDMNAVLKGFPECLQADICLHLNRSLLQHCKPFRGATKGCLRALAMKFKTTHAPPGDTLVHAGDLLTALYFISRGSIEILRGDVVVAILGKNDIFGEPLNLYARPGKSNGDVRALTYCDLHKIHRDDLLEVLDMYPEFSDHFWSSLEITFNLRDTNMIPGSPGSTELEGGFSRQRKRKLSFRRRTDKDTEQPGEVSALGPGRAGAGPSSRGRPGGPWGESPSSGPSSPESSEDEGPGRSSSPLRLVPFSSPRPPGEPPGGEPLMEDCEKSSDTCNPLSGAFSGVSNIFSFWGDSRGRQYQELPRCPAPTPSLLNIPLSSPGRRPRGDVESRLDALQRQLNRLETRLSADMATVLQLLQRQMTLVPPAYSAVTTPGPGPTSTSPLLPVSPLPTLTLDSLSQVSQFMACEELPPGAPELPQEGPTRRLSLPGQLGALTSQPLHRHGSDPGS
CYP2C19, sequence (P33261 whole entry): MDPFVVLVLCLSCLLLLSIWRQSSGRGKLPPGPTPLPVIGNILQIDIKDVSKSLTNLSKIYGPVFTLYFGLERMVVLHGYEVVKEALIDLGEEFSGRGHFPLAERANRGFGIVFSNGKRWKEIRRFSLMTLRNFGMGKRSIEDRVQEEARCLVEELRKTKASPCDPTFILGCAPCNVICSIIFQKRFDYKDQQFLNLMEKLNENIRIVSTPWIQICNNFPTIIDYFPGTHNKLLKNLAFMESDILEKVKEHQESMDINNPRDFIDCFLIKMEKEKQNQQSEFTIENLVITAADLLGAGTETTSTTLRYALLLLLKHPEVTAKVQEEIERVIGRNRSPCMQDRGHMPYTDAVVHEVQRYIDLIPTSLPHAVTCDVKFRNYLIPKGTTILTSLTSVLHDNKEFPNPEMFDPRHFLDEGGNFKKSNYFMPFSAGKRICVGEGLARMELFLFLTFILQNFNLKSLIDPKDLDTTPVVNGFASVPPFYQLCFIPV
CYP2D6, sequence (P10635 whole entry): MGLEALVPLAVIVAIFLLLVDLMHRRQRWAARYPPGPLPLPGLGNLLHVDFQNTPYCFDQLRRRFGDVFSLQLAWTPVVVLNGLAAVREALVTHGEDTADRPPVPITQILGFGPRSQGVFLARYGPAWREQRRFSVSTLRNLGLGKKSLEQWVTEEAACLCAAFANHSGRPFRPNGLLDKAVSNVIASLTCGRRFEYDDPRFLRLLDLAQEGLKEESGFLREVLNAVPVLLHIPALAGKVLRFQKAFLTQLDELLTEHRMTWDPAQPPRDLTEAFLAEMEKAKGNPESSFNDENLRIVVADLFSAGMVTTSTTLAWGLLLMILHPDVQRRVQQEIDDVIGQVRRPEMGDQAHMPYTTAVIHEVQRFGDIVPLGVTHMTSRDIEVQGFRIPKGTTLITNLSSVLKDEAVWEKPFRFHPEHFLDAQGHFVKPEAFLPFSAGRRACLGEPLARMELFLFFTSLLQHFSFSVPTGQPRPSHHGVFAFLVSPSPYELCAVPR

CCOC(=O)[C@H](Nc1ccc(CNC(=O)[C@@H]2SCCN2C(=O)C[C@H](N)Cc2cc(F)c(F)cc2F)cc1)C(C)C
inhibition in vivo at 10 mg/kg (Rattus norvegicus [1]): 87%
inhibition in vivo at 3 mg/kg (Canis familiaris [2]): 77%
inhibition in vivo at 10 mg/kg (Rattus norvegicus [3]): 95%
inhibition in vivo at 10 mg/kg (Rattus norvegicus [4]): 92%
inhibition in vivo at 3 mg/kg (Canis familiaris [5]): 94%
inhibition in vivo at 3 mg/kg (Canis familiaris [6]): 93%
inhibition in vivo at 3 mg/kg (Canis familiaris [7]): 44%

CC(C)[C@@H](Nc1ccc(CNC(=O)[C@@H]2SCCN2C(=O)C[C@H](N)Cc2cc(F)c(F)cc2F)cc1)C(=O)O.Cl
IC50 (Dipeptidyl peptidase 2): > 100 µM
IC50 (Aminopeptidase N): > 100 µM
IC50 (Prolyl endopeptidase): > 100 µM
IC50 [8]: > 100 µM
IC50 [9]: > 100 µM
remaining at 1 h [10]: > 90%
remaining at 1 h [11]: > 90%
remaining at 24 h [12]: > 90%
inhibition at 10 µM (CYP3A4): 3.5%
inhibition at 10 µM (CYP1A2): 2.9%
inhibition at 10 µM (CYP2C9): 26.8%
inhibition at 10 µM (CYP2C19): 46.9%
inhibition at 10 µM (CYP2D6): 12.2%
EC50 [13]: 408 µM
Activity (HepG2): Non-toxic
Activity [14]: Non-toxic

From ChEMBL document CHEMBL1681678, “Discovery of β-aminoacyl containing thiazolidine derivatives as potent and selective dipeptidyl peptidase IV inhibitors” (Bioorg Med Chem Lett, 2011)
